{"source": "paper PMC6592620", "about": "(Biochemistry, 2018)", "biological_target": "phiYFP (yellow fluorescent protein from the jellyfish Phialidium sp.) (Phialidium sp. SL-2003, UniProt Q6RYS7)", "experiment": "fluorescence titration, single site binding model"}
{"smiles": "I", "note": "[iodide]", "values": [{"measurement": "Kd", "result": "50 ± 2", "unit": "mM"}]}
